Results taken from patent US5851782A, “Inhibitors of ceramidase” (Duke University, priority 1996, dated 1998).

Legend:
[1] = system: ceramidase in HL-60 cells; test: Inhibition of L-e-MAPP metabolism in cells (ceramidase activity in cells); assay type: cell-based, human
Experimental: (§1) Metabolism studies. Lipids from cells treated with ^3 H-labeled compounds were extracted (Bligh & Dyer method), dried, resuspended in chloroform/methnol (10:1, v/v), and subjected to separation by TLC in chloroform/methanol (4:1, v/v). Spots containing radioactive compounds were scraped and radioactivity was measured using a scintillation counter.
Since D-e-MAPP inhibits ceramidase in cells, then it should also protect L-e-MAPP from metabolic degradation. Therefore, the effects of D-e-MAPP on metabolism of L-e-MAPP were examined. HL-60 cells were treated with tritium-labeled L-e-MAPP (3 μM), and the metabolism of L-e-MAPP was evaluated in the presence and absence of 3 μM D-e-MAPP. […] The effects of D-e-MAPP on metabolism of L-e-MAPP were dose dependent with most of the inhibition occurring at levels of D-e-MAPP of 1-3 μM (FIG. 8B).

[2] = system: endogenous ceramide levels in HL-60 cells; test: cells; details: Homo sapiens, HL-60, 24 h, read-out: endogenous ceramide level relative to baseline
Experimental: Ceramide and diacylglycerol levels were measured on total liquid extracts using the diacylglycerol kinase assay (Jayadev et al, J. Biol. Chem. 270:2047 (1995)).
Therefore, HL-60 cells were treated with 5 μM D-e-MAPP, ethanol vehicle or L-e-MAPP for 0-24 h. At the indicated time points (FIG. 4A), total lipids were extracted and endogenous ceramide levels were measured by the Escherichia coli diacylglycerol kinase assay.
The upper spot of ceramide phosphate co-migrated with synthetic D-erythro-C18 dihydroceramide phosphate whereas the lower spot co-migrated with D-erythro-C18 ceramide phosphate.

HL-60 cells = test: Cellular metabolism of tritium-labeled compounds (TLC); assay type: cell-based, human; details: HL-60, 5 μM, TLC
Experimental: as §1
(§2) Next, the metabolism of D- and L-e-MAPP was evaluated. To this end, organic lipids were extracted from cells treated with 5 μM D- or L-e-MAPP at the indicated time points (FIG. 5D), and lipids were resolved on TLC. […] On the other hand, L-e-MAPP underwent significant metabolism in a time-dependent fashion such that by 24 h, more than 70% of the L-e-MAPP taken up by cells was metabolized (FIG. 5, D and E). Two major breakdown products of L-e-MAPP were resolved by TLC. One metabolite co-migrated with […] and not with other neutral or polar lipids. The other metabolite (upper spot in FIG. 5D) comigrated with triacylglycerol.

acid ceramidase = target: T1, acid ceramidase (Homo sapiens, UniProt Q13510); test: Acid ceramidase activity in vitro at pH 4.5; assay type: biochemical; design: Ceramidase activity was determined from total homogenates of HL-60 cells; endogenous in cells; host or cells: HL-60 cells; details: 50 μM
T1 sequence (Q13510 22-395): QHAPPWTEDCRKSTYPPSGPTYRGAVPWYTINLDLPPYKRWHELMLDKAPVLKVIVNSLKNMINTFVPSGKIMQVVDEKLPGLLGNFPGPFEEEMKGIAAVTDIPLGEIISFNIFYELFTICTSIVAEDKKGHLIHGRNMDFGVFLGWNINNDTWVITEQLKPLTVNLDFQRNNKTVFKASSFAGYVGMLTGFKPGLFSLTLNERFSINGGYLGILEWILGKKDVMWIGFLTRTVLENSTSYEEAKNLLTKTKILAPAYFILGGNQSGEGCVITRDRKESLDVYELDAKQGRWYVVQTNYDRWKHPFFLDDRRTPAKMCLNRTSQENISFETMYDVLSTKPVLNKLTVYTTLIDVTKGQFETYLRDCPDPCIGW
Experimental: Measurement of ceramidase activity in HL-60 cells. Ceramidase activity in HL-60 cells was measured by a modification of the method of Gatt and Yavin (Methods Enzymol. 14:139 (1969)). Cells were disrupted by sonication in 0.25M sucrose, 1 mM EDTA, and centrifuged at 10,000×g for 10 min after which the supernatant was centrifuged at 100,000×g for 60 min. Ten μl of 1 mM ceramide substrate ([^3 H]C16 -ceramide) was mixed with 100 μl of Triton X-100 (0.1%) in chloroform/methanol, 2:1, and 100 μl of 0.2% sodium cholate in chloroform/methanol, 2:1, after which the solvent was evaporated under N2 at 70° C. To this mixture, 30 μl of water was added and the tubes were heated for 5 s in an 80° C. water bath and then put on ice. Fifty μl of the appropriate buffer depending on desired pH was added followed by 20 μl of 50 mM MgCl2 and 100 μl of cell extract. In experiments using inhibitors, the desired inhibitor was added in ethanol either with the substrate or directly to the final solution. The reaction mixture was incubated for 1 h at 37° C. The ^3 H-fatty acid products of ceramidase were separated by the addition of 2 ml of Dole's solution (isopropyl alcohol, heptane, NaOH), 1.2 ml of heptane, and 1 ml of water. After vortexing and centrifugation, the upper phase was discarded and the lower phase was washed twice with heptane and the upper phase discarded each time. […]

[3] = Cellular metabolism of tritium-labeled compounds (TLC); assay type: cell-based, human; details: human, hl-60 cells; HL-60, 5 μM, by 24 h; read-out: fraction of compound taken up that was metabolized
Experimental: as §1, §2

For `CCCCCCCCCCCCCC(=O)N[C@H](C)[C@@H](O)c1ccccc1` [D-e-MAPP, D-erythro-2-(N-myristolyamino)-1-phenyl-1-propanol], the “effect on breakdown of L-e-MAPP in cells” value ([1]; HL-60, 3 μM tritium-labeled L-e-MAPP, 3 μM D-e-MAPP) was “prevented the breakdown of L-e-MAPP”, the “levels at which most of the inhibition of L-e-MAPP metabolism occurs” value ([1]; HL-60, dose dependence) was 1 to 3 µM and the fold induction at 5 µM [2] was about 3. For the same compound, the metabolism in cells (HL-60 cells) was “showed little metabolism and remained intact” and the inhibition at 50 µM (acid ceramidase) was under 10%.

Compound `CCCCCCCCCCCCCC(=O)N[C@@H](C)[C@H](O)c1ccccc1` [L-e-MAPP, L-erythro-2-(N-myristolyamino)-1-phenyl-1-propanol] has a metabolised at 24 h, 5 µM [3] of over 70%.
